{"source": "patent US5753516A", "about": "“Screening method for ligands of the EBI-1 receptor” (priority 1995, dated 1998)", "key": {"[1]": {"tested_on": "NALM 6 cells", "format": "binding, human"}, "[2]": {"tested_on": "opiate μ-receptor", "conditions": "sub-antinociceptive doses; cited from earlier work"}, "[3]": {"biological_target": "T1, EBI1 (Homo sapiens, UniProt P32248)", "T1 sequence (P32248 25-378)": "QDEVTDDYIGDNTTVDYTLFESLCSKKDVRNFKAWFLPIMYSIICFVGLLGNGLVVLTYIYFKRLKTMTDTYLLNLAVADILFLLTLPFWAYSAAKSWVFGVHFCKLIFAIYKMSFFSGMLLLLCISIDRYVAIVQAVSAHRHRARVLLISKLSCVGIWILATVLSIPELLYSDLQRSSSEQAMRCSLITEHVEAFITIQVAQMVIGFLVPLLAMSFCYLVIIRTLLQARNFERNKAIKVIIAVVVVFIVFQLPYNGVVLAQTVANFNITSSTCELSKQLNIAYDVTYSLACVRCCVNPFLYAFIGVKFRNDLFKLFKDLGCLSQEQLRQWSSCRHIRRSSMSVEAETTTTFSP", "from_the_text": "(§1) Data are plotted as the concentration of free ^3 H-DPDPE (x-axis) vs specific binding of ^3 H-DPDPE (y-axis)."}, "[4]": {"tested_on": "Jurkat cells"}, "[5]": {"biological_target": "T1, EBI1", "assay": "biochemical", "from_the_text": "as §1"}, "[6]": {"assay": "in vitro", "conditions": "human, nalm 6 cells"}, "[7]": {"tested_on": "human T cells", "assay": "Migration of human peripheral blood T cells", "format": "cell-based"}, "[8]": {"tested_on": "COS (Vector Control)", "assay": "cAMP accumulation in COS cells (vector control)", "format": "cell-based, monkey", "conditions": "COS (Vector Control); MET-ENK 0.01 nM, naloxone 10 μM, forskolin 0.1 μM; controls 40.2 and 38.8"}, "[9]": {"tested_on": "NALM 6 cells", "assay": "[Ca^2+ ]i response of NALM 6 / leukemia cells (Indo-1, flow cytometry)", "format": "cell-based, human", "protocol": "FIG. 15, Panels A-C. […] Cells were labeled with Indo-1 as previously described (Rabinovitch et al., 1986), washed twice in serum-free medium and held at 4° C. until flow cytometric analysis. The violet/blue fluorescence ratio was measured using previously described methods (Rabinovitch et al., 1986). Nonstimulated cells (measured in medium, alone) were used to establish a relative violet/blue ratio arbitrarily set at 1.0 as previously described (Rabinovitch). Calibration of [Ca^2+ ]i was carried out as previously described by Rabinovitch et al (1986) using the formula: [formula]\nRmax values were determined by measuring the maximum shift in indo violet/blue fluorescence for cells treated with 4 μM ionomycin. Rmin was measured as the minimum ratio for the violet blue fluorescence of ionomycin treated cells following the addition of 8 mM EGTA. […] The Kd (effective dissociation constant) was set at 250 nM."}, "[10]": {"tested_on": "NALM 6 cells", "assay": "Migration (chemotaxis) of NALM 6 pre-B ALL cells", "format": "cell-based, human", "conditions": "for % Response (with/without naloxone): 90 min, 10 µM"}, "[11]": {"biological_target": "T1, EBI1", "conditions": "COS (EBI 1); MET-ENK 0.01 nM, naloxone 10 μM, forskolin 0.1 μM; controls 61.2 and 63.5"}, "[12]": {"tested_on": "NALM 6 cells", "assay": "Light scatter analysis of morphological response of NALM 6 cells", "format": "cell-based, human", "protocol": "FIG. 2, Panels A and B. Methionine-enkephalin induces a morphological change in NALM 6 cells. […] Analysis of forward and right angle light scatter was performed using a Becton Dickinson FACS SCAN flow cytometer as described (Sklar et al., 1984). Histograms of light scatter were obtained by analyzing 10,000 cells per sample. Data are expressed as mean channel number (y-axis) vs concentration of MET-ENK (x-axis).\nForward and right angle light scatter analysis of the morphological response to MET-ENK: The effect of MET-ENK on cell morphology were measured using flow cytometric analysis of forward and right angle light scatter as previously described (Sklar et al., 1984). For these studies 10^6 cells were resuspended in one-ml of PBS, activated by the addition of MET-ENK or maintained in the PBS buffer alone, and then, incubated for 5 minutes at 37° C. […] Samples were analyzed on a Becton Dickinson FACS SCAN flow cytometer with excitation at 488 nm (Sklar et al., 1984). Histograms of light scattering were obtained by analyzing 10,000 cells for each sample. Data analysis was performed using the Lysys System software package."}, "[13]": {"tested_on": "NALM 6 cells", "assay": "MET-ENK-FITC binding to NALM 6 cells (flow cytometry, Scatchard)", "set-up": "species or system human", "conditions": "5 μM naloxone"}, "[14]": {"tested_on": "LAZ 221 cells", "assay": "Flow cytometry of surface molecule expression on LAZ 221 cells", "format": "cell-based, human", "conditions": "LAZ 221, 100 fold excess of naloxone", "protocol": "FIG. 4, Panels A-C. […] Data are presented as mean fluorescence intensities measured for 10,000 cells labeled with anti-CD9 or CD10 mAb. In Panel A, the NALM 6 Cells were incubated with MET-ENK (10^-7 M) for the times indicated. In Panel B, the LAZ 221 cells were incubated with MET-ENK at the doses indicated for 5 minutes at 37° C. […] The anti-CD9 and anti-CD10 mAb used for these experiments were of the IgG2a isotype.\nImmunofluorescence Staining and Flow Cytometric Analysis of Cell Surface Molecules: Cells were resuspended at 1×10^6 /ml in PBS and then incubated for periods of 5 to 120 minutes at 37° C. with MET-ENK at doses of 0 to 10^-5 M. Incubations were terminated by transferring samples to an ice bath and then pelleting the cells by centrifugation at 1800 rpm for 5 minutes at 4° C.\nImmunofluorescence staining was carried out in 4-ml tubes maintained in an ice water bath. […] Cells were subsequently fixed within a 2% solution of formalin and maintained in the dark at 10° C. until analyzed.\nFlow cytometric analysis was performed using a FACS SCAN Flow Cytometer (Becton Dickinson, Mountain View, Calif.) equipped with a HP9000 Series computer and the Lysys System software analysis package. Data were collected as histograms depicting the fluorescence intensity for 5,000 to 10,000 cells per sample.\nThe non-binding IgG1 MOPC myeloma protein, anti-macrophage/monocyte specific CD14 (MO2; IgG2) and anti-T cell specific CD3 (OKT3; IgG2a) mAb were employed as nonreactive controls for measuring the autofluorescence of B cells."}, "[15]": {"tested_on": "freshly isolated lymphocytes and EBV transformed cell lines", "conditions": "Borboni et al., 1989; cited from earlier work"}, "[16]": {"tested_on": "lymphocytes and macrophages", "conditions": "injection into cerebroventricles of rodents; cited from earlier work"}, "[17]": {"tested_on": "PMN", "conditions": "Falke and Fischer, 1985; cited from earlier work"}, "[18]": {"tested_on": "PBMC", "conditions": "cited from earlier work"}, "[19]": {"tested_on": "human T cells", "conditions": "Heagy et al., 1990; cited from earlier work"}}, "note": "Entries after “also recorded” stand apart in the source; their conditions may differ.", "data": [{"molecule": "CC1(C)SSC(C)(C)[C@@H](NC(=O)[C@@H](N)Cc2ccc(O)cc2)C(=O)NCC(=O)N[C@@H](Cc2ccccc2)C(=O)N[C@H]1C(=O)O", "note": "[DPDPE, [D-Pen^2,5]enkephalin]", "values": [{"measurement": "specific binding, % of total", "setting": "[1]", "value": "50-80%"}, {"measurement": "effect on morphine antinociception", "setting": "[2]", "value": "enhance the antinociception mediated via the opiate μ-receptor agonist morphine"}, {"measurement": "binding to membranes of COS cells expressing lymphocyte R7G", "setting": "[3]", "value": "specific, high affinity binding"}, {"measurement": "specific binding, % of total", "setting": "[4]", "value": "50-60%"}, {"measurement": "Kd", "setting": "[5]", "value": 0.2, "unit": "nM"}]}, {"molecule": "C=CCN1CC[C@]23c4c5ccc(O)c4O[C@H]2C(=O)CC[C@@]3(O)[C@H]1C5", "note": "[Naloxone]", "values": [{"measurement": "viability at 10 µM", "setting": "[6]", "value": "≥ 96", "unit": "%"}, {"measurement": "human lymphocyte / T cell migration", "setting": "[7]", "value": "blocked the T cell chemotaxis to MET-ENK"}, {"measurement": "cAMP", "setting": "[8]", "value": 31.4, "unit": "fmoles/cell × 10^3"}, {"measurement": "[Ca^2+ ]i response", "setting": "[9]", "value": "inhibited by naloxone"}, {"measurement": "% Response (with/without naloxone)", "setting": "[10]; MET-ENK 1 nM, naloxone 10^-5 M", "value": 43, "unit": "%"}, {"measurement": "% Response (with/without naloxone)", "setting": "[10]; MET-ENK 100 nM, naloxone 10^-5 M", "value": 42, "unit": "%"}, {"measurement": "effect of naloxone on NALM 6 migration", "setting": "[10]; migration to MET-ENK or spontaneous locomotion", "value": "inhibited the migration of NALM 6 cells to MET-ENK; also recorded: Spontaneous locomotion resulting from the random movement of unchallenged cells was equivalent for naloxone treated and nontreated cells"}, {"measurement": "cell counts, migration to MET-ENK with naloxone", "setting": "[10]; naloxone 10^-5 M, MET-ENK 100 nM", "value": 1476, "unit": "cell counts"}, {"measurement": "cell counts, spontaneous locomotion with naloxone", "setting": "[10]; naloxone 10^-5 M, no MET-ENK, without naloxone 1647", "value": 1350, "unit": "cell counts"}, {"measurement": "% Response (with/without naloxone)", "setting": "[10]; spontaneous locomotion, naloxone 10^-5 M", "value": 82, "unit": "%"}, {"measurement": "cAMP", "setting": "[11]", "value": 76.4, "unit": "fmoles/cell × 10^3"}, {"measurement": "morphological response (light scatter) of NALM 6 cells", "setting": "[12]; 5 minutes at 37° C.", "value": "inhibited by preincubation with naloxone"}, {"measurement": "baseline light scatter, naloxone alone", "setting": "[12]; vs PBS alone", "value": "shifted the baseline measurement below that for the control"}, {"measurement": "effect of naloxone on MET-ENK(-FITC) binding", "setting": "[13]", "value": "in the presence of naloxone this association is decreased; also recorded: blocked"}, {"measurement": "reversal of agonist binding by naloxone", "setting": "[4]; ^3 H-DADLE, ^3 H-DPDPE, ^3 H-U69,593", "value": "a portion of the binding of these highly selective opiate receptor agonists was reversed by naloxone"}, {"measurement": "effect on MET-ENK induction of CD9", "setting": "[14]", "value": "totally blocked"}]}, {"molecule": "β-END: polypeptide β-endorphin", "values": [{"measurement": "human lymphocyte / T cell migration", "setting": "[7]", "value": "stimulate human lymphocyte migration"}, {"measurement": "sensitivity of binding to naloxone", "setting": "[15]", "value": "insensitive to naloxone and not displaced by synthetic peptides containing MET-ENK residues"}, {"measurement": "lymphocyte and macrophage migration into ventricles", "setting": "[16]", "value": "elicited lymphocyte and macrophage migration into the ventricles"}, {"measurement": "onset of PMN morphological response", "setting": "[17]", "value": "≤ 2", "unit": "minutes"}, {"measurement": "blastogenic responses to T and B cell lectins", "setting": "[18]; PBMC", "value": "augment the blastogenic responses of PBMC to both T and B cell lectins"}, {"measurement": "IFN-γ production", "setting": "[18]; lectin stimulated PBMC", "value": "enhance IFN-γ production"}, {"measurement": "human T cell migration", "setting": "[19]", "value": "potent stimulants for the migration of isolated human T cells"}]}]}
